“And” between values parts separate entries of the source, which are not always exact repeats. Equal entries are not always repeated.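 Growth conditions: 96-well plates. Treatment: test compound, 48 hours, 5 concentrations. Analysis: linear interpolation between bracketing concentrations; unreached endpoints set to highest concentration. GI50 is the concentration that inhibits growth by half. The concentration for full growth arrest is given as TGI.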
What was measured:
Assay in all cases: NCI-60 cell line screen, 48 h
UACC-62 melanoma = tested on: UACC-62 melanoma
MOLT-4 leukemia = tested on: MOLT-4 leukemia
PC-3 prostate = tested on: PC-3 prostate
OVCAR-4 ovarian = tested on: OVCAR-4 ovarian
EKVX NSCLC = tested on: EKVX NSCLC
TK-10 renal = tested on: TK-10 renal
MDA-MB-435 = tested on: MDA-MB-435
DU-145 prostate = tested on: DU-145 prostate
SNB-75 CNS = tested on: SNB-75 CNS
K-562 leukemia = tested on: K-562 leukemia

Row | SMILES | GI50 (UACC-62 melanoma) [nM] | TGI (UACC-62 melanoma) | GI50 (MOLT-4 leukemia) [nM] | TGI (MOLT-4 leukemia) | GI50 (PC-3 prostate) [nM] | TGI (PC-3 prostate) [nM] | GI50 (OVCAR-4 ovarian) | TGI (OVCAR-4 ovarian) | GI50 (EKVX NSCLC) [nM] | TGI (EKVX NSCLC) [µM] | GI50 (TK-10 renal) | TGI (TK-10 renal) | GI50 (MDA-MB-435) [nM] | TGI (MDA-MB-435) [µM] | GI50 (DU-145 prostate) [nM] | TGI (DU-145 prostate) [µM] | GI50 (SNB-75 CNS) [nM] | TGI (SNB-75 CNS) [µM] | GI50 (K-562 leukemia) [nM] | TGI (K-562 leukemia)
1 | CCN1C(=O)N(CC)C2C1NN=c1s/c(=C\c3ccc(Cl)cc3Cl)c(=O)n12 (configuration not stated) | 64 | > 51.5 µM | 42.1 | > 64.5 µM | 40.8 | > 53400 | 79.2 nM | > 95.9 µM | 42.3 | > 100 | 13.4 µM | 59.3 µM | 20.6 | 0.0572 | 33.2 | 1.38 | 25.8 | 0.971 | 30.9 | 28 µM
2 | COc1ccc2c(c1)C(=O)/C(=C/c1cccc(OCC(=O)c3ccccc3)c1)CC2 | 12800 | > 100 µM | 3050 | 6.82 µM | 4920 | > 100000 | 12500 nM | > 100 µM | 13900 | > 100 | > 100 µM | > 100 µM | 2090 | 10.5 | 32600 | > 100 | 42400 | > 100 | 1980 | 5.82 µM
3 | Cc1ccc(S(=O)(=O)SC/C=C\CSS(=O)(=O)c2ccc(C)cc2)cc1 |  | > 79.9 µM and 45.5 µM |  | 14.6 µM and 72.6 µM |  | > 100000 | 53100 nM and 20100 nM | > 100 µM and 41.2 µM |  | > 100 | 50 µM and 20.4 µM | > 100 µM and 45.5 µM |  | 27.6 |  | > 66.9 |  | > 100 |  | 25.2 µM and 64.9 µM
4 | CCSCCCSCCSCC |  | > 100 µM |  | 84.5 µM |  | > 100000 |  | > 100 µM |  | > 100 |  | > 100 µM |  | > 100 |  | > 100 |  | > 100 |  | > 100 µM
5 | O=[N+]([O-])c1ccccc1N=Nc1c(O)[nH]c2cccc(C(F)(F)F)c12 |  | > 100 µM |  | > 100 µM |  | > 100000 |  | 52 µM |  | > 100 |  | > 100 µM |  | 40.7 |  | > 100 |  | > 100 |  | > 100 µM
6 | Cc1c2cnccc2c(C)c2c1c1cc(C#N)ccc1n2C | 148 | 0.343 µM | 95.9 | 1.68 µM | 217 | 1110 | 245 nM | 0.988 µM | 219 | 0.624 | 0.266 µM | 1.62 µM | 271 | 0.899 | 208 | 0.836 | 179 | 0.966 | 247 | 1.33 µM
7 | O=C(c1ccc2ccccc2c1)c1c(C(F)(F)F)n([O-])c2ccc(C(F)(F)F)cc2[n+]1=O | 1720 | 3.21 µM | 441 | 1.62 µM | 407 | 1420 | 249 nM | 0.607 µM | 1540 | 3.2 | 1.67 µM | 3.07 µM | 1750 | 3.35 | 738 | 2 | 640 | 1.48 | 608 | 1.14 µM
8 | O=C1/C(=C/c2ccc([N+](=O)[O-])cc2)CN(C(=O)CCN2CCC(=NO)CC2)C/C1=C\c1ccc([N+](=O)[O-])cc1 | 866 | 2.49 µM | 409 | > 20 µM | 583 | 2380 | 1310 nM | 5.36 µM | 2300 | 10.1 | 2.01 µM | 6.14 µM | 1000 | 3.45 | 1610 | 4.65 | 1950 | 9.05 | 216 | > 60.9 µM
